For one assay, the system named is Staph. aureus SG 511. As to the kind of experiment: Minimum bacteriostatic inhibitory concentration, Agar dilution method. It counts as cell-based. Background: In agar dilution, organisms are placed on agar that contains the substance at set levels.
The subject of another assay is Staph. aureus 285. The assay is described as above. It counts as cell-based.
The test system of a further assay is Staph. aureus 503. The description is as above. The class given is cell-based.
The test system of a further assay is Strept. pyogenes 308 A. The assay is described as above. The class given is cell-based.
The next assay relates to Strept. pyogenes 77 A. The assay is described as above. It counts as cell-based.
The test system of another assay is Strept. faecium D. The description is as above. The class given is cell-based.
A further assay deals with Escherichia coli DC 2. The description is as above. The class given is cell-based.
The next assay relates to Bact. fragilis 312. The assay is described as above. It counts as cell-based.
A further assay deals with Bact. fragilis 960. Described as above. It counts as cell-based.
Another assay relates to Bact. fragilis 1313. The description is as above. The class given is cell-based.
A further assay has as its system Bact. vulgatus 1446. Described as above. It counts as cell-based.
Assay [1] concerns Peptostrept. anaerob. 932. Described as above. It counts as cell-based.
The next assay concerns Propioni acnes 6916. The description is as above. It counts as cell-based.
Another assay has as its system Propioni acnes 6922. Described as above. It counts as cell-based.
Assay [2] relates to Clostridium tetani ATCC 1940650. The conditions noted are these: Agar dilution method.
In assay [3] the test system is Clostridium perfringens 194. The conditions noted are these: Agar dilution method.

For the molecule `CNC(CC(C)C)C(=O)NC1C(=O)NC(CC(N)=O)C(=O)NC2C(=O)NC3C(=O)NC(C(=O)NC(C(=O)O)c4cc(O)cc(O)c4-c4cc3ccc4O)C(OC3CC4(C)NC(=O)NC4(O)C(C)O3)c3ccc(c(Cl)c3)Oc3cc2cc(c3OC2OC(CO)C(O)C(O)C2O)Oc2ccc(cc2Cl)C1O` (centres unmarked) [Ureidobalhimycin, ureidobalhimycin], the “Minimum bacteriostatic inhibitory concentration” value in the assay with Staph. aureus SG 511 is given as 0.8 micrograms per milliliter; in the assay on Staph. aureus 285, 1.5 micrograms per milliliter; in the assay with Staph. aureus 503 it was 1.5 micrograms per milliliter; in the assay with Strept. pyogenes 308 A, 0.8 micrograms per milliliter; in the assay with Strept. pyogenes 77 A, 0.8 micrograms per milliliter; in the assay with Strept. faecium D, 1.5 micrograms per milliliter. Also, the “Minimum bacteriostatic inhibitory concentration” value in the assay on Escherichia coli DC 2 is recorded as greater than 100 micrograms per milliliter; with Bact. fragilis 312, 25 micrograms per milliliter; in the assay on Bact. fragilis 960 it was 25 micrograms per milliliter; in the assay with Bact. fragilis 1313, 25 micrograms per milliliter; in the assay with Bact. vulgatus 1446, 50 micrograms per milliliter; in assay [1], 6.2 micrograms per milliliter. Besides, the “Minimum bacteriostatic inhibitory concentration” value worked out at 0.8 micrograms per milliliter with Propioni acnes 6916, 1.5 micrograms per milliliter in the assay on Propioni acnes 6922, 12.5 micrograms per milliliter in assay [2] and 0.4 micrograms per milliliter in assay [3].

As for `CNC(CC(C)C)C(=O)NC1C(=O)NC(CC(N)=O)C(=O)NC2C(=O)NC3C(=O)NC(C(=O)NC(C(=O)O)c4cc(O)cc(O)c4-c4cc3ccc4O)C(OC3CC(C)(N)C(=O)C(C)O3)c3ccc(c(Cl)c3)Oc3cc2cc(c3O)Oc2ccc(cc2Cl)C1O` (centres unmarked) [Desglucobalhimycin, desglucobalhimycin], the “Minimum bacteriostatic inhibitory concentration” value in the assay on Staph. aureus SG 511 is recorded as 0.2 micrograms per milliliter; in the assay with Staph. aureus 285, 0.2 micrograms per milliliter; with Staph. aureus 503 it was 0.1 micrograms per milliliter; in the assay on Strept. pyogenes 308 A, 0.1 micrograms per milliliter; with Strept. pyogenes 77 A it was 0.1 micrograms per milliliter; in the assay on Strept. faecium D, 0.2 micrograms per milliliter. Further, the “Minimum bacteriostatic inhibitory concentration” value in the assay on Escherichia coli DC 2 is given as greater than 100 micrograms per milliliter; with Bact. fragilis 312, 25 micrograms per milliliter; in the assay with Bact. fragilis 960, 25 micrograms per milliliter; with Bact. fragilis 1313, 25 micrograms per milliliter; with Bact. vulgatus 1446 it was greater than 100 micrograms per milliliter; in [1], 0.4 micrograms per milliliter. In addition, the “Minimum bacteriostatic inhibitory concentration” value worked out at 0.2 micrograms per milliliter in the assay on Propioni acnes 6916, 0.2 micrograms per milliliter with Propioni acnes 6922, 0.4 micrograms per milliliter in assay [2] and 0.1 micrograms per milliliter in [3].
